Assay results published in patent US4921958A, “Piperazinylalkylcarboxylic acid adamantylamides” (American Home Products Corporation, priority 1989, dated 1990).
Where two headings read alike, the source gives them in different places.

Legend:
[1] = target: T1, 5-HT1A serotonin receptor subtype (Rattus norvegicus, UniProt P19327); test: Displacement of 3H-8-OH DPAT from the 5-HT1A serotonin receptor subtype (Hall et al.); assay type: binding; conditions: for inhibition at 1 µM: 1 μM test compound, read-out: % Inhibition at 1 μM (Affinity for 5-HT1A Receptor Sites); for Ki: calculated from appropriate IC50 values, 3H-8-OH DPAT, read-out: Ki (Affinity for 5-HT1A Receptor Sites)
T1 construct: from tissue
T1 sequence (P19327 1-422): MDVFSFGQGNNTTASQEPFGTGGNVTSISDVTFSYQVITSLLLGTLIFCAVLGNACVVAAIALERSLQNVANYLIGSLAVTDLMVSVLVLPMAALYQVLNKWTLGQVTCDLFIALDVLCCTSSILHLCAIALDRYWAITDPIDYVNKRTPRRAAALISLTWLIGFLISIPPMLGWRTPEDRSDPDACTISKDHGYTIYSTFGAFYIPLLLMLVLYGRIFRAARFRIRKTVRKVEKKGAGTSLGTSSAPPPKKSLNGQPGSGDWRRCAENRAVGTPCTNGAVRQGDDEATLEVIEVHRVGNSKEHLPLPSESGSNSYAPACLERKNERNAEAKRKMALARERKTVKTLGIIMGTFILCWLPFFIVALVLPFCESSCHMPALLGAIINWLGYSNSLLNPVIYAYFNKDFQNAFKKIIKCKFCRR
From the text: The serotoninergic properties of the compounds of this invention were established by the procedure of Hall et al., J. Neurochem.

[2] = target: T2, limbic D2 (dopamine) receptor (Rattus norvegicus, UniProt P61169); test: Inhibition of 3H-spiroperidol binding to limbic brain tissue (D2 receptor affinity; modified Fields et al. and Yamamura et al.); conditions: 1 μM test compound
T2 construct: from tissue; host or cells: limbic brain tissue
T2 sequence (P61169 whole entry): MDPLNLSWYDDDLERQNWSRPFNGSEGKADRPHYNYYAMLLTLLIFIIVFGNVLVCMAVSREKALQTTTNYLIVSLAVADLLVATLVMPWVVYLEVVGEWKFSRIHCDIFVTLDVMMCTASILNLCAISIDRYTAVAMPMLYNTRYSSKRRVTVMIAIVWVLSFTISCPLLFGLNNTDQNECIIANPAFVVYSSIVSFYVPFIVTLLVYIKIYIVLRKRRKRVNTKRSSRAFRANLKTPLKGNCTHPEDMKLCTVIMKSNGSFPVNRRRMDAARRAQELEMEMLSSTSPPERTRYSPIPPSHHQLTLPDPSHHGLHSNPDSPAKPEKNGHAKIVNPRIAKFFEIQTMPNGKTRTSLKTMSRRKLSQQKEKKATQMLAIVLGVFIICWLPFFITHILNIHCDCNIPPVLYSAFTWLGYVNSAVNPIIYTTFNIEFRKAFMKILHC
Experimental: The compounds of this invention are antidepressant, anxiolytic agents useful in the treatment of depression and/or anxiety as a singular, primary mental problem as well as secondary, attending problems such as sexual dysfunction. […] The D2 receptor affinity of the compounds of this invention was determined by a modification of the test procedure of Fields et al., Brain Res. 136, 578 (1977) and Yamamura et. al., eds., Neurotransmitter Receptor Binding, Raven Press, N.Y. (1978) as discussed in U.S. No. 4,636,563. The percentage reduction of ^3 H-spiroperidol binding at 1 μM concentration of test compound is reported, infra.

[3] = in words, Barone et al., 1986; cited from earlier work
[4] = 3H-spiroperidol, read-out: % Inhibition at 1 μM (Affinity for D2 Receptor Sites)

inhibition at 1 µM ([1]; displacement of 3H-8-OH DPAT) [%]	Ki [1] [nM]	inhibition at 1 µM [2, 4] [%]	inhibition at 0.1 µM ([1]; 100 nM test compound, displacement of 3H-8-OH DPAT, read-out: % Inhibition at 100 nM (Affinity for 5-HT1A Receptor Sites)) [%]	inhibition at 1 µM ([2]; limbic brain tissue, read-out: inhibition of 3H-spiroperidol binding to limbic brain tissue) [%]	Structure (SMILES)	clinical efficacy as anxiolytic-antidepressant agents [3]
79	130	14			O=C(CCN1CCN(c2ncccn2)CC1)NC12CC3CC(CC(C3)C1)C2 [Example 1, 4-(2-pyrimidyl)-N-tricyclo[3.3.1.1(3.7)]dec-1-yl-1-piperazinepropanamide]	
100	9	74	86	74	COc1ccccc1N1CCN(CCC(=O)NC23CC4CC(CC(C4)C2)C3)CC1 [Example 2, 4-(2-methoxyphenyl)-N-tricyclo[3.3.1.1(3,7)]dec-1-yl-1-piperazinepropanamide]	
	83				COc1ccccc1N1CCN(CC(C(=O)NC23CC4CC(CC(C4)C2)C3)c2ccccc2)CC1 (stereo not shown) [Example 3, N-(1-Tricyclo[3.3.1.1(3,7)]decyl)-3-[1-[4-(2-methoxyphenyl)piperazinyl]]-2-phenylpropanamide]	
					Cc1nc2sccn2c(=O)c1CCN1CCC(=C(c2ccc(F)cc2)c2ccc(F)cc2)CC1 [Ritanserin]	demonstrate clinical efficacy
